# Measurements reported in patent publication US20210030005A1, “BENZOXABOROLE COMPOSITIONS HAVING A GROWTH ENHANCING EFFECT” (BORAGEN, INC., priority 2018, published 2021).
# Tests used:
# [1] = tested on: Southern Rust of Maize (Puccinia polysora); assay: Field trial, Southern Rust of Maize severity on maize; format: in vivo
# Procedure: (§1) In this example, diseased maize having Southern Rust of Maize (Puccinia polysora) was treated with BAG8, Azoxystrobin, and Boscalid. Testing was performed to assess the fungicidal effect of the compounds on Southern Rust of Maize (Puccinia polysora) and to assess the growth enhancing effect of the compounds on the diseased maize.
# (§2) Maize was planted into 6×30 ft plots and replicated four times in a randomized complete block design. Three treatments and an untreated control were tested for efficacy against Southern Rust of Maize (Puccinia polysora) and assessed for yield at the conclusion of the growing season. Foliar applications of the three treatments, BAG8 at 0.25 pounds of active ingredient per acre, azoxystrobin at 0.25 pounds of active ingredient per acre, and boscalid at 0.24 pounds of active ingredient per acre, were applied to the plots at growth stage V8. Best practices were used consistently across the test plots with regard to field conditions such as fertilization, insect control, weed control, and irrigation. Disease assessments were taken in each plot 28 days after the foliar fungicide application. At maturity, each plot was harvested using standard harvesting equipment. After shelling, the kernels were weighed at 11% moisture and yield calculations extrapolated to bushels per acre.
# (§3) Analysis of variance (ANOVA) was used to examine disease severity data and means were separated using Fisher's least significant difference (LSD) method at α=0.05. […]
# diseased maize = assay: Field trial, yield of diseased maize; format: in vivo; settings: for Yield: 11% moisture
# Procedure: as §1, §2, §3
# diseased soybeans = assay: Field trial, yield of diseased soybeans; format: in vivo, soybean
# Procedure: (§4) In this example, diseased soybeans having Asian Soybean Rust (Phakopsora pachyrhizi) were treated with BAG8 and Azoxystrobin. Testing was performed to assess the fungicidal effect of the compounds on Asian Soybean Rust and to assess the growth enhancing effects of the compounds on the diseased soybeans.
# (§5) Soybeans were planted into 6×30 ft plots and replicated four times in a randomized complete block design. Two treatments and an untreated control were tested for efficacy against Asian Soybean Rust (Phakopsora pachyrhizi) and assessed for yield at the conclusion of the growing season. Foliar applications of the two treatments, BAG8 at 0.25 pounds of active ingredient per acre and azoxystrobin at 0.25 pounds of active ingredient per acre, were applied to the plots at two separate times: growth stage R1 (flowering) and growth stage R3 (bean pod formation). Best practices were used consistently across the test plots with regard to field conditions such as fertilization, insect control, weed control, and irrigation. Disease assessments were taken in each plot 28 days after the final foliar fungicide application. At maturity, each plot was harvested using standard harvesting equipment. After shelling, the beans were weighed at 13% moisture and yield calculations extrapolated to bushels per acre.
# as §3
# [2] = tested on: Asian Soybean Rust (Phakopsora pachyrhizi); assay: Field trial, Asian Soybean Rust severity on soybean; format: in vivo
# Procedure: as §4, §5, §3
# Tomato = settings: Davis et al. 2003, cited from earlier work
smiles,measurement,setting,value
O=C(Nc1ccccc1-c1ccc(Cl)cc1)c1cccnc1Cl [Boscalid],Disease Severity (% Leaf Coverage),"[1]; 0.24 lb ai/A foliar at V8, 28 days after application",25.1 b % Leaf Coverage
same,Yield,"diseased maize; 0.24 lb ai/A foliar at V8, harvest at maturity",91.6 c bu/A
"CO/C=C(/C(=O)OC)c1ccccc1Oc1cc(Oc2ccccc2C#N)ncn1 [Azoxystrobin, reference compound]",reduced disease relative to the untreated control,[1]; 0.25 lb ai/A foliar,100%
same,Disease Severity (% Leaf Coverage),"[1]; 0.25 lb ai/A foliar at V8, 28 days after application",0.0 c % Leaf Coverage
same,increased soybean yield,diseased soybeans; 0.25 lb ai/A foliar,305%
same,Yield,"diseased soybeans; 0.25 lb ai/A foliar at R1 and R3, harvest at maturity, 13% moisture",59.2 a bu/A
same,increased yield relative to untreated control,diseased maize; 0.25 lb ai/A foliar,205%
same,Yield,"diseased maize; 0.25 lb ai/A foliar at V8, harvest at maturity",151.1 a bu/A
same,reduced disease in comparison to untreated control,[2]; 0.25 lb ai/A foliar,66%
same,Disease Severity (% Leaf Coverage),"[2]; 0.25 lb ai/A foliar at R1 and R3, 28 days after final application",30.6 d % Leaf Coverage
OB(O)O [boric acid],yield and shelf-life of harvested tomatoes,Tomato,higher yield and longer shelf-life for harvested tomatoes
same,growth of the plant,Tomato; hydroponic fertilizer,"increased growth of the plant, plant parts, and plant propagation materials"
